Assay results as given in patent US20020137929A1, “1 - (3-heterocyclylphenyl) isothiourea, -isourea, -guanidine and -amidine herbicidal agents” (Intellectual Property Department, BASF Aktiengesellschaft, priority 1998, published 2002).

Legend:
[1] = tested on: IPOHE (Morningglory, Ivyleaf); assay: Postemergence herbicidal evaluation; assay type: in vivo, Ipomoea hederacea; settings: for IPOHE herbicidal rating: postemergence
Procedure, shortened: (§1)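 Visual 0-9 injury score (stand, vigor, malformation, size, chlorosis, appearance vs untreated) taken four to five weeks post-spray, averaged across repeat tests. Test plants about two weeks old; foliar spray of acetone/water (1:1) with 0.5% surfactant delivering ~0.0156-0.500 kg active/ha.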

MOOVA (Monochoria) = assay: Postemergence weed control under flooded paddy conditions; assay type: in vivo, Monochoria vaginalis; settings: postemergence weeds
Procedure, shortened: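 With weeds 3 to 5 cm tall and rice at the 1.5 to 2.5 leaf stage, containers were flooded and water held 1.5 to 3 cm above soil. Compounds in 50/50 v/v aqueous/acetone went into the flood water at about 0.0313 to 0.500 kg/ha a.i. Effects were visually rated 0–9 against controls after three to four weeks in the greenhouse.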

GALAP (Galium) = assay: Preemergence herbicidal evaluation; assay type: in vivo, Galium aparine; settings: rated 4-5 weeks after treatment
Procedure, shortened: (§2)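 Seeds were mixed with potting soil and planted on about one inch of soil, then sprayed with test compound in aqueous acetone at about 0.0156 to 0.500 kg per hectare. Plants grew under standard greenhouse care and were visually rated 0-9 against untreated controls 4-5 weeks post-treatment.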

[2] = tested on: GLXMAW (Soybean, Williams); assay: Preemergence herbicidal evaluation; assay type: in vivo, Glycine max, (L.) Merr. cv Williams; settings: rated 4-5 weeks after treatment
Procedure, shortened: as §2

ECHCG (Barnyardgrass) = assay: Preemergence herbicidal evaluation; assay type: in vivo, Echinochloa crus-galli; settings: rated 4-5 weeks after treatment
Procedure, shortened: as §2

[3] = tested on: CHEAL (Lambsquarters, Common); assay: Postemergence herbicidal evaluation; assay type: in vivo, Chenopodium album; settings: for CHEAL herbicidal rating: postemergence
Procedure, shortened: as §1

[4] = rate 0.0313 kg/ha, 3-4 weeks after treatment
[5] = rate 0.0625 kg/ha, 3-4 weeks after treatment
[6] = rate 0.1250 kg/ha, 3-4 weeks after treatment
[7] = rate 0.2500 kg/ha, 3-4 weeks after treatment

CN(C)N1C(=O)CSC1=Nc1cc(-n2c(=O)cc(C(F)(F)F)n(C)c2=O)c(F)cc1Cl [Compound 23, 3-{4-Chloro-5-{[3-(dimethylamino)-4-oxo-2-thiazolidinylidine]amino}-2-fluorophenyl}-1-methyl-6-(trifluoromethyl)-2,4(1H,3H)-pyrimidinedione]
IPOHE herbicidal rating ([1]; rate 0.0158 kg/ha): 4.0
IPOHE herbicidal rating ([1]; rate 0.0315 kg/ha): 9.0
IPOHE herbicidal rating ([1]; rate 0.0630 kg/ha): 9.0
Herbicidal rating MOOVA (MOOVA (Monochoria); rate 0.1160 kg/ha, 3-4 weeks after treatment): 9.0
Herbicidal rating MOOVA (MOOVA (Monochoria); rate 0.2310 kg/ha, 3-4 weeks after treatment): 9.0
Herbicidal rating MOOVA (MOOVA (Monochoria); rate 0.4630 kg/ha, 3-4 weeks after treatment): 9.0
GALAP preemergence herbicidal rating (GALAP (Galium); rate 0.0156 kg/ha): 0.0
GALAP preemergence herbicidal rating (GALAP (Galium); rate 0.0313 kg/ha): 1.0
GALAP preemergence herbicidal rating (GALAP (Galium); rate 0.0625 kg/ha): 1.0
GALAP preemergence herbicidal rating (GALAP (Galium); rate 0.1250 kg/ha): 0.0
GALAP preemergence herbicidal rating (GALAP (Galium); rate 0.2500 kg/ha): 2.0
GLXMAW preemergence herbicidal rating ([2]; rate 0.0156 kg/ha): 0.0
GLXMAW preemergence herbicidal rating ([2]; rate 0.0313 kg/ha): 0.0
GLXMAW preemergence herbicidal rating ([2]; rate 0.0625 kg/ha): 2.0
GLXMAW preemergence herbicidal rating ([2]; rate 0.1250 kg/ha): 6.0
GLXMAW preemergence herbicidal rating ([2]; rate 0.2500 kg/ha): 7.0
ECHCG preemergence herbicidal rating (ECHCG (Barnyardgrass); rate 0.0156 kg/ha): 0.0
ECHCG preemergence herbicidal rating (ECHCG (Barnyardgrass); rate 0.0313 kg/ha): 1.0
ECHCG preemergence herbicidal rating (ECHCG (Barnyardgrass); rate 0.0625 kg/ha): 2.0
ECHCG preemergence herbicidal rating (ECHCG (Barnyardgrass); rate 0.1250 kg/ha): 4.0
ECHCG preemergence herbicidal rating (ECHCG (Barnyardgrass); rate 0.2500 kg/ha): 6.0
CHEAL herbicidal rating ([3]; rate 0.0158 kg/ha): 2.0
CHEAL herbicidal rating ([3]; rate 0.0315 kg/ha): 7.0
CHEAL herbicidal rating ([3]; rate 0.0630 kg/ha): 9.0

Cn1c(C(F)(F)F)cc(=O)n(-c2cc(N=C3SCC(=O)N3Cc3ccccc3)c(Cl)cc2F)c1=O [Compound 26]
IPOHE herbicidal rating ([1]; rate 0.0156 kg/ha): 9.0
IPOHE herbicidal rating ([1]; rate 0.0313 kg/ha): 9.0
IPOHE herbicidal rating ([1]; rate 0.0625 kg/ha): 9.0
Herbicidal rating MOOVA (MOOVA (Monochoria); [4]): 9.0
Herbicidal rating MOOVA (MOOVA (Monochoria); [5]): 9.0
Herbicidal rating MOOVA (MOOVA (Monochoria); [6]): 9.0
Herbicidal rating MOOVA (MOOVA (Monochoria); [7]): 9.0
Preemergence herbicidal rating GALAP (GALAP (Galium); rate 0.0156 kg/ha): 0.0
Preemergence herbicidal rating GALAP (GALAP (Galium); rate 0.0313 kg/ha): 0.0
Preemergence herbicidal rating GALAP (GALAP (Galium); rate 0.0625 kg/ha): 0.0
Preemergence herbicidal rating GALAP (GALAP (Galium); rate 0.1250 kg/ha): 9.0
Preemergence herbicidal rating GALAP (GALAP (Galium); rate 0.2500 kg/ha): 9.0
Preemergence herbicidal rating GLXMAW ([2]; rate 0.0156 kg/ha): 0.0
Preemergence herbicidal rating GLXMAW ([2]; rate 0.0313 kg/ha): 0.0
Preemergence herbicidal rating GLXMAW ([2]; rate 0.0625 kg/ha): 0.0
Preemergence herbicidal rating GLXMAW ([2]; rate 0.1250 kg/ha): 0.0
Preemergence herbicidal rating GLXMAW ([2]; rate 0.2500 kg/ha): 1.0
Preemergence herbicidal rating ECHCG (ECHCG (Barnyardgrass); rate 0.0156 kg/ha): 0.0
Preemergence herbicidal rating ECHCG (ECHCG (Barnyardgrass); rate 0.0313 kg/ha): 0.0
Preemergence herbicidal rating ECHCG (ECHCG (Barnyardgrass); rate 0.0625 kg/ha): 0.0
Preemergence herbicidal rating ECHCG (ECHCG (Barnyardgrass); rate 0.1250 kg/ha): 1.0
Preemergence herbicidal rating ECHCG (ECHCG (Barnyardgrass); rate 0.2500 kg/ha): 2.0
CHEAL herbicidal rating ([3]; rate 0.0156 kg/ha): 9.0
CHEAL herbicidal rating ([3]; rate 0.0313 kg/ha): 9.0
CHEAL herbicidal rating ([3]; rate 0.0625 kg/ha): 9.0

C=CCOC(=O)CC1SC(=Nc2cc(-n3c(=O)cc(C(F)(F)F)n(C)c3=O)c(F)cc2Cl)N(CC=C)C1=O (stereo not drawn) [Compound 65, Allyl 3-allyl-2-{(2-chloro-5-[3,6-dihydro-3-methyl-2,6-dioxo-4-(trifluoromethyl)-1(2H)-pyrimidinyl]-4-fluorophenyl}imino}-4-oxo-5-thiazolidineacetate]
IPOHE herbicidal rating ([1]; rate 0.0158 kg/ha): 9.0
IPOHE herbicidal rating ([1]; rate 0.0315 kg/ha): 9.0
IPOHE herbicidal rating ([1]; rate 0.0630 kg/ha): 9.0
Herbicidal rating MOOVA (MOOVA (Monochoria); Rate 0.0313 kg/ha, rated 3 to 4 weeks after treatment): 9.0
Herbicidal rating MOOVA (MOOVA (Monochoria); Rate 0.0625 kg/ha, rated 3 to 4 weeks after treatment): 9.0
Herbicidal rating MOOVA (MOOVA (Monochoria); Rate 0.1250 kg/ha, rated 3 to 4 weeks after treatment): 9.0
Herbicidal rating MOOVA (MOOVA (Monochoria); Rate 0.2500 kg/ha, rated 3 to 4 weeks after treatment): 9.0
Preemergence herbicidal rating GALAP (GALAP (Galium); rate 0.0156 kg/ha): 0.0
Preemergence herbicidal rating GALAP (GALAP (Galium); rate 0.0313 kg/ha): 0.0
Preemergence herbicidal rating GALAP (GALAP (Galium); rate 0.0625 kg/ha): 0.0
Preemergence herbicidal rating GALAP (GALAP (Galium); rate 0.1250 kg/ha): 1.0
Preemergence herbicidal rating GALAP (GALAP (Galium); rate 0.2500 kg/ha): 9.0
Preemergence herbicidal rating GLXMAW ([2]; rate 0.0156 kg/ha): 1.0
Preemergence herbicidal rating GLXMAW ([2]; rate 0.0313 kg/ha): 0.0
Preemergence herbicidal rating GLXMAW ([2]; rate 0.0625 kg/ha): 1.0
Preemergence herbicidal rating GLXMAW ([2]; rate 0.1250 kg/ha): 2.0
Preemergence herbicidal rating GLXMAW ([2]; rate 0.2500 kg/ha): 5.0
Preemergence herbicidal rating ECHCG (ECHCG (Barnyardgrass); rate 0.0156 kg/ha): 0.0
Preemergence herbicidal rating ECHCG (ECHCG (Barnyardgrass); rate 0.0313 kg/ha): 0.0
Preemergence herbicidal rating ECHCG (ECHCG (Barnyardgrass); rate 0.0625 kg/ha): 0.0
Preemergence herbicidal rating ECHCG (ECHCG (Barnyardgrass); rate 0.1250 kg/ha): 2.0
Preemergence herbicidal rating ECHCG (ECHCG (Barnyardgrass); rate 0.2500 kg/ha): 5.0
CHEAL herbicidal rating ([3]; rate 0.0158 kg/ha): 9.0
CHEAL herbicidal rating ([3]; rate 0.0315 kg/ha): 9.0
CHEAL herbicidal rating ([3]; rate 0.0630 kg/ha): 9.0

CCOC(=O)CN1C(=O)C(CC(=O)OC)S/C1=N/c1cc(-n2c(=O)cc(C(F)(F)F)n(C)c2=O)c(F)cc1Cl (stereo not drawn) [Compound 54, 2-{{2-Chloro-5-[3,6-dihydro-3-methyl-2,6-dioxo-4-(trifluoromethyl)-1(2H)-pyrimidinyl]-4-fluorophenyl}imino}-4-oxo-3,5-thiazolidinediacetic acid, 3-ethyl methyl ester]
Postemergence herbicidal rating IPOHE ([1]; Rate 0.0158 kg/ha): 9.0
Postemergence herbicidal rating IPOHE ([1]; Rate 0.0315 kg/ha): 9.0
Postemergence herbicidal rating IPOHE ([1]; Rate 0.0630 kg/ha): 9.0
Herbicidal rating MOOVA (MOOVA (Monochoria); [4]): 0.0
Herbicidal rating MOOVA (MOOVA (Monochoria); [5]): 0.0
Herbicidal rating MOOVA (MOOVA (Monochoria); [6]): 6.0
Herbicidal rating MOOVA (MOOVA (Monochoria); [7]): 6.0
Preemergence herbicidal rating GALAP (GALAP (Galium); rate 0.0156 kg/ha): 0.0
Preemergence herbicidal rating GALAP (GALAP (Galium); rate 0.0313 kg/ha): 0.0
Preemergence herbicidal rating GALAP (GALAP (Galium); rate 0.0625 kg/ha): 0.0
Preemergence herbicidal rating GALAP (GALAP (Galium); rate 0.1250 kg/ha): 9.0
Preemergence herbicidal rating GALAP (GALAP (Galium); rate 0.2500 kg/ha): 9.0
Preemergence herbicidal rating GLXMAW ([2]; rate 0.0156 kg/ha): 0.0
Preemergence herbicidal rating GLXMAW ([2]; rate 0.0313 kg/ha): 0.5
Preemergence herbicidal rating GLXMAW ([2]; rate 0.0625 kg/ha): 1.5
Preemergence herbicidal rating GLXMAW ([2]; rate 0.1250 kg/ha): 3.0
Preemergence herbicidal rating GLXMAW ([2]; rate 0.2500 kg/ha): 7.5
Preemergence herbicidal rating GLXMAW ([2]; rate 0.5000 kg/ha): 9.0
Preemergence herbicidal rating ECHCG (ECHCG (Barnyardgrass); rate 0.0156 kg/ha): 0.0
Preemergence herbicidal rating ECHCG (ECHCG (Barnyardgrass); rate 0.0313 kg/ha): 0.0
Preemergence herbicidal rating ECHCG (ECHCG (Barnyardgrass); rate 0.0625 kg/ha): 0.0
Preemergence herbicidal rating ECHCG (ECHCG (Barnyardgrass); rate 0.1250 kg/ha): 2.0
Preemergence herbicidal rating ECHCG (ECHCG (Barnyardgrass); rate 0.2500 kg/ha): 5.0
Preemergence herbicidal rating ECHCG (ECHCG (Barnyardgrass); rate 0.5000 kg/ha): 9.0
Postemergence herbicidal rating CHEAL ([3]; Rate 0.0158 kg/ha): 9.0
Postemergence herbicidal rating CHEAL ([3]; Rate 0.0315 kg/ha): 9.0
Postemergence herbicidal rating CHEAL ([3]; Rate 0.0630 kg/ha): 9.0

CCOC(=O)CN1C(=O)C(CCO)S/C1=N/c1cc(-n2c(=O)cc(C(F)(F)F)n(C)c2=O)c(F)cc1Cl (stereo not drawn) [Compound 49, Ethyl 2-{{2-chloro-5-[3,6-dihydro-3-methyl-2,6-dioxo-4-(trifluoromethyl)-1(2H)-pyrimidinyl]-4-fluorophenyl}imino}-5-(hydroxyethyl)-4-oxo-3-thiazolidineacetate]
Postemergence herbicidal rating IPOHE ([1]; Rate 0.0313 kg/ha): 9.0
Postemergence herbicidal rating IPOHE ([1]; Rate 0.0625 kg/ha): 9.0
Postemergence herbicidal rating IPOHE ([1]; rate 0.0156 kg/ha): 9.0
Herbicidal rating MOOVA (MOOVA (Monochoria); [4]): 9.0
Herbicidal rating MOOVA (MOOVA (Monochoria); [5]): 9.0
Herbicidal rating MOOVA (MOOVA (Monochoria); [6]): 9.0
Herbicidal rating MOOVA (MOOVA (Monochoria); [7]): 9.0
Preemergence herbicidal rating GALAP (GALAP (Galium); rate 0.0156 kg/ha): 0.0
Preemergence herbicidal rating GALAP (GALAP (Galium); rate 0.0313 kg/ha): 0.0
Preemergence herbicidal rating GALAP (GALAP (Galium); rate 0.0625 kg/ha): 7.0
Preemergence herbicidal rating GALAP (GALAP (Galium); rate 0.1250 kg/ha): 7.0
Preemergence herbicidal rating GALAP (GALAP (Galium); rate 0.2500 kg/ha): 9.0
Preemergence herbicidal rating GLXMAW ([2]; rate 0.0156 kg/ha): 0.0
Preemergence herbicidal rating GLXMAW ([2]; rate 0.0313 kg/ha): 0.0
Preemergence herbicidal rating GLXMAW ([2]; rate 0.0625 kg/ha): 2.0
Preemergence herbicidal rating GLXMAW ([2]; rate 0.1250 kg/ha): 2.0
Preemergence herbicidal rating GLXMAW ([2]; rate 0.2500 kg/ha): 2.0
Preemergence herbicidal rating ECHCG (ECHCG (Barnyardgrass); rate 0.0156 kg/ha): 0.0
Preemergence herbicidal rating ECHCG (ECHCG (Barnyardgrass); rate 0.0313 kg/ha): 0.0
Preemergence herbicidal rating ECHCG (ECHCG (Barnyardgrass); rate 0.0625 kg/ha): 0.0
Preemergence herbicidal rating ECHCG (ECHCG (Barnyardgrass); rate 0.1250 kg/ha): 0.0
Preemergence herbicidal rating ECHCG (ECHCG (Barnyardgrass); rate 0.2500 kg/ha): 3.0
Postemergence herbicidal rating CHEAL ([3]; Rate 0.0313 kg/ha): 9.0
Postemergence herbicidal rating CHEAL ([3]; Rate 0.0625 kg/ha): 9.0
Postemergence herbicidal rating CHEAL ([3]; rate 0.0156 kg/ha): 9.0
